This test has as its target T1, orexin-2 receptor (Homo sapiens, UniProt O43614).
T1 construct: expressed in transfected cells; host or cells: CHO-K1 (preferred) or HEK-293 recombinant clones
T1 sequence (O43614 1-444): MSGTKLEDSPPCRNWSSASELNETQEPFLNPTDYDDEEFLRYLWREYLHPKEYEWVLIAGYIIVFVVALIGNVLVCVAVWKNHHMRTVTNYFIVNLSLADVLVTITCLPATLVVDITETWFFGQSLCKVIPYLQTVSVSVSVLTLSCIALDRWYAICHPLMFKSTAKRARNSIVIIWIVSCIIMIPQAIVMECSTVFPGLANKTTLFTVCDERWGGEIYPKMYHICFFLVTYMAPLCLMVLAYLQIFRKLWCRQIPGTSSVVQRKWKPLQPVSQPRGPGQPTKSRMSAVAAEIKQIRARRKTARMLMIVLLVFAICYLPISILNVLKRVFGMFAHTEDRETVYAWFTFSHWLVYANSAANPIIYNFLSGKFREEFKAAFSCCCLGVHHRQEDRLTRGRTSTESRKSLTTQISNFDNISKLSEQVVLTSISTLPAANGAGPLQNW
As to the kind of experiment: Orexin radioligand binding assay (125I-orexin A, adherent recombinant cells). The note with it: 125I-orexin A displacement, recombinant CHO-K1 or HEK-293 cells expressing the orexin receptor. Here is the method:
The reaction was quenched with 100 μL of 10% w/v bovine serum albumin, then the products were pre-purified using Waters Maxi-Clean C18 cartridges (Alltech, San Jose, Calif.). The mobile phase for the reverse phase separations (pre-purification and gradient HPLC) was 0.1% TFA, and the eluent was 0.1% TFA in acetonitrile. After removing the acetonitrile from the Maxi-Clean cartridge eluent by lyophilization, the labeled compound was further purified by gradient HPLC using a Vydac (Hesperia, Calif.) analytical C18 HPLC column. A gradient of 2% acetonitrile/min was used and fractions were collected every 0.75 min at a flow rate of 1.5 mL/min.
Radioligand binding assays were performed in opaque, white 96-well tissue culture plates pretreated with poly-D-lysine (Bio-Coat plates, Becton Dickinson, Franklin Lakes, N.J.). Cells expressing the orexin receptor were seeded at 30,000 cells/well in 100 μL/well Ham's F12 with 10% heat inactivated fetal bovine serum, penicillin/streptomycin and 800 mg/L G418. […] In preparation for the binding assay, the cell culture medium was aspirated away, and the cells were gently washed with 100 μL-well binding buffer (Dulbecco's phosphate buffered saline containing 0.1% w/v bovine serum albumin). […] The assay was terminated by aspirating the liquid from the wells, washing the wells with iced binding buffer, aspirating the wells dry, adding 50 μL/well scintillation cocktail (MicroScint 40, Packard Biosciences, Meriden Conn.), and counting the plate(s) in a Packard TopCount scintillation counter. […] Data were analyzed using GraphPad Prizm software to calculate Ki values.

With `CC1(C)OC[C@H](NC(=O)Nc2ccc(F)cc2F)[C@H](c2ccccc2)O1` [Example 45, 1-(2,4-Difluoro-phenyl)-3-((4S,5S)-2,2-dimethyl-4-phenyl-[1,3]dioxan-5-yl)-urea], the Ki was determined as 6000 nM. Next, `Cc1cc(NC(=O)N[C@H]2COC(C)(C)O[C@H]2c2ccccc2)ccc1Br` [Example 9, 1-(4-Bromo-3-methyl-phenyl)-3-((4S,5S)-2,2-dimethyl-4-phenyl-[1,3]dioxan-5-yl)-urea]: 87 nM; `CC1(C)OC[C@H](/N=C(\S)Nc2ccc(Cl)cc2Cl)[C@H](c2ccccc2)O1` [Example 22, 1-(2,4-Dichloro-phenyl)-3-((4S,5S)-2,2-dimethyl-4-phenyl-[1,3]dioxan-5-yl)-thiourea]: 280 nM; `CC1(C)OC[C@H](NC(=O)Nc2cc(C(F)(F)F)ccc2Cl)[C@H](c2ccccc2)O1` [Example 17, 1-(2-Chloro-5-trifluoromethyl-phenyl)-3-((4S,5S)-2,2-dimethyl-4-phenyl-[1,3]dioxan-5-yl)-urea]: 120 nM. In the case of `CC1(C)OC[C@H](NC(=O)Nc2ccc(I)cc2)[C@H](c2ccccc2)O1` [Example 7, 1-((4S,5S)-2,2-Dimethyl-4-phenyl-[1,3]dioxan-5-yl)-3-(4-iodo-phenyl)-urea], the Ki is 45 nM. Next, `CC1(C)OC[C@H](NC(=O)Nc2ccccc2C(F)(F)F)[C@H](c2ccccc2)O1` [Example 8, 1-((4S,5S)-2,2-Dimethyl-4-phenyl-[1,3]dioxan-5-yl)-3-(2-trifluoromethyl-phenyl)-urea]: 76 nM; `CC1(C)OC[C@H](NC(=O)Nc2cc(Cl)ccc2Cl)[C@H](c2ccccc2)O1` [Example 10, 1-(2,5-Dichloro-phenyl)-3-((4S,5S)-2,2-dimethyl-4-phenyl-[1,3]dioxan-5-yl)-urea]: 98 nM. For the molecule `CC1(C)OC[C@H](NC(=O)Nc2cccc(Cl)c2)[C@H](c2ccccc2)O1` [Example 46, 1-(3-Chloro-phenyl)-3-((4S,5S)-2,2-dimethyl-4-phenyl-[1,3]dioxan-5-yl)-urea], the Ki turned out to be 2000 nM. To `CC(C)c1ccccc1NC(=O)N[C@H]1COC(C)(C)O[C@H]1c1ccccc1` [Example 42, 1-((4S,5S)-2,2-Dimethyl-4-phenyl-[1,3]dioxan-5-yl)-3-(2-isopropyl-phenyl)-urea] belongs 2900 nM; to `CC1(C)OC[C@H](NC(=O)Nc2c(Cl)cccc2Cl)[C@H](c2ccccc2)O1` [Example 43, 1-(2,6-Dichloro-phenyl)-3-((4S,5S)-2,2-dimethyl-4-phenyl-[1,3]dioxan-5-yl)-urea], 5000 nM. With `CC1(C)OC[C@H](NC(=O)Nc2ccccc2C#N)[C@H](c2ccccc2)O1` [Example 20, 1-(2-Cyano-phenyl)-3-((4S,5S)-2,2-dimethyl-4-phenyl-[1,3]dioxan-5-yl)-urea], the Ki was found to be 60 nM. `CC1(C)OC[C@H](NC(=O)Nc2cccc(Br)c2)[C@H](c2ccccc2)O1` [Example 44, 1-(3-Bromo-phenyl)-3-((4S,5S)-2,2-dimethyl-4-phenyl-[1,3]dioxan-5-yl)-urea]: the Ki turned out to be 3800 nM. To `CC1(C)OC[C@H](NC(=O)Nc2ccccc2-c2cccnc2)[C@H](c2ccccc2)O1` [Example 23, 1-((4S,5S)-2,2-Dimethyl-4-phenyl-[1,3]dioxan-5-yl)-3-(2-pyridin-3-yl-phenyl)-urea] belongs 320 nM.

Take `CC1(C)OC[C@H](NC(=O)Nc2ccc(-c3cccnc3)cc2)[C@H](c2ccccc2)O1` [Example 38, 1-((4S,5S)-2,2-Dimethyl-4-phenyl-[1,3]dioxan-5-yl)-3-(4-pyridin-3-yl-phenyl)-urea]: the Ki came to 320 nM.

As to `Cc1cc(Br)ccc1NC(=O)N[C@H]1COC(C)(C)O[C@H]1c1ccccc1` [Example 2, 1-(4-Bromo-2-methyl-phenyl)-3-((4S,5S)-2,2-dimethyl-4-phenyl-[1,3]dioxan-5-yl)-urea], the Ki amounted to 50 nM.

Turning to `CC1(C)OC[C@H](NC(=O)Nc2ccccc2I)[C@H](c2ccccc2)O1` [Example 6, 1-((4S,5S)-2,2-Dimethyl-4-phenyl-[1,3]dioxan-5-yl)-3-(2-iodo-phenyl)-urea], the Ki amounted to 70 nM. In the case of `CC1(C)OC[C@H](NC(=O)Nc2ccccc2-c2cccs2)[C@H](c2ccccc2)O1` [Example 13, 1-((4S,5S)-2,2-Dimethyl-4-phenyl-[1,3]dioxan-5-yl)-3-(2-thiophen-2-yl-phenyl)-urea], the Ki turned out to be 34 nM. To `CC1(C)OC[C@H](NC(=O)Nc2ccccc2-c2cccc(Cl)c2)[C@H](c2ccccc2)O1` [Example 14, 1-(3′-Chloro-biphenyl-2-yl)-3-((4S,5S)-2,2-dimethyl-4-phenyl-[1,3]dioxan-5-yl)-urea] belongs 63 nM. `O=C(Nc1ccc(Br)cc1Br)N[C@H]1COC2(CCCCC2)O[C@H]1c1ccccc1` [Example 25, 1-(2,4-Dibromo-phenyl)-3-((2S,3S)-2-phenyl-1,5-dioxa-spiro[5.5]undec-3-yl)-urea]: the Ki worked out at 700 nM. To `CC1(C)OC[C@H](NC(=O)Nc2ccccc2Cl)[C@H](c2ccccc2)O1` [Example 30, 1-(2-Chloro-phenyl)-3-((4S,5S)-2,2-dimethyl-4-phenyl-[1,3]dioxan-5-yl)-urea] belongs 300 nM; to `CC1(c2ccccc2)OC[C@H](NC(=O)Nc2ccccc2Br)[C@H](c2ccccc2)O1` (stereo partly drawn) [Example 28, 1-(2-Bromo-phenyl)-3-((4S,5S)-2-methyl-2,4-diphenyl-[1,3]dioxan-5-yl)-urea], 2600 nM. Next, `CC1(C)OC[C@H](/N=C(\S)Nc2ccccc2Br)[C@H](c2ccccc2)O1` [Example 24, 1-(2-Bromo-phenyl)-3-((4S,5S)-2,2-dimethyl-4-phenyl-[1,3]dioxan-5-yl)-thiourea]: 540 nM. In the case of `Cc1ccc(C)c(NC(=O)N[C@H]2COC(C)(C)O[C@H]2c2ccccc2)c1` [Example 11, 1-(2,5-Dimethyl-phenyl)-3-((4S,5S)-2,2-dimethyl-4-phenyl-[1,3]dioxan-5-yl)-urea], the Ki is 64 nM. Consider `CC1(C)OC[C@H](NC(=O)Nc2ccccc2F)[C@H](c2ccccc2)O1` [Example 31, 1-((4S,5S)-2,2-Dimethyl-4-phenyl-[1,3]dioxan-5-yl)-3-(2-fluoro-phenyl)-urea], for which the Ki came to 1550 nM.

As for `CC1(C)OC[C@H](NC(=O)Nc2ccccc2[N+](=O)[O-])[C@H](c2ccccc2)O1` [Example 33, 1-((4S,5S)-2,2-Dimethyl-4-phenyl-[1,3]dioxan-5-yl)-3-(2-nitro-phenyl)-urea], the Ki was found to be 580 nM. Turning to `COC(=O)c1ccccc1NC(=O)N[C@H]1COC(C)(C)O[C@H]1c1ccccc1` [Example 40, 2-[3-((4S,5S)-2,2-Dimethyl-4-phenyl-[1,3]dioxan-5-yl)-ureido]-benzoic acid methyl ester], the Ki is 1200 nM. To `CC1(C)OC[C@H](NC(=O)Cc2ccccc2Br)[C@H](c2ccccc2)O1` [Example 34, 2-(2-Bromo-phenyl)-N-((4S,5S)-2,2-dimethyl-4-phenyl-[1,3]dioxan-5-yl)-acetamide] belongs 2200 nM. With `CC1(C)OC[C@H](NC(=O)Nc2ccccc2-c2ccsc2)[C@H](c2ccccc2)O1` [Example 15, 1-((4S,5S)-2,2-Dimethyl-4-phenyl-[1,3]dioxan-5-yl)-3-(2-thiophen-3-yl-phenyl)-urea], the Ki amounted to 100 nM. Next, `COc1ccccc1NC(=O)N[C@H]1COC(C)(C)O[C@H]1c1ccccc1` [Example 37, 1-((4S,5S)-2,2-Dimethyl-4-phenyl-[1,3]dioxan-5-yl)-3-(2-methoxy-phenyl)-urea]: 6000 nM. As for `CC1(C)OC[C@H](NC(=O)Nc2ccccc2Oc2ccccc2)[C@H](c2ccccc2)O1` [Example 21, 1-((4S,5S)-2,2-Dimethyl-4-phenyl-[1,3]dioxan-5-yl)-3-(2-phenoxy-phenyl)-urea], the Ki worked out at 210 nM. Next, `CC1(C)OC[C@H](NC(=O)Nc2ccccc2-c2ccccc2)[C@H](c2ccccc2)O1` [Example 16, 1-Biphenyl-2-yl-3-((4S,5S)-2,2-dimethyl-4-phenyl-[1,3]dioxan-5-yl)-urea]: 56 nM; `CC1(C)OC[C@H](NC(=O)Nc2ccccc2C(=O)O)[C@H](c2ccccc2)O1` [Example 41, 2-[3-((4S,5S)-2,2-Dimethyl-4-phenyl-[1,3]dioxan-5-yl)-ureido]-benzoic acid]: 710 nM; `CC1(C)OC[C@H](NC(=O)Oc2ccccc2Cl)[C@H](c2ccccc2)O1` [Example 35, ((4S,5S)-2,2-Dimethyl-4-phenyl-[1,3]dioxan-5-yl)-carbamic acid 2-chloro-phenyl ester]: 2600 nM.

In general, Ki refers to a measure of affinity in units of concentration, obtained from inhibition or displacement.
